What was measured:
rat aortic SMCs = assay: vascular SMC proliferation (PDGF-induced, resazurin conversion); type: cell-based
[1] = test system: HUVECtert immortalized human umbilical vein endothelial cells; assay: endothelial cell proliferation (resazurin); type: cell-based
SMCs in relation to ECs = assay: activity ratio: efficiency towards SMCs / efficiency towards ECs; type: cell-based; details: for a.r. code: activity ratio class, order in Table 1 follows the calculated values
Procedure: For determination of vascular SMC proliferation, 0.5×10^4 viable rat aortic SMCs per well were seeded in SMC growth medium (DMEM/F12 medium with 20% serum, 30 μg/mL Gentamicin and 15 ng/mL Amphotericin) in 96-well plates. 24 h later, the medium was removed, the cells were washed once with SMC starvation medium (DMEM/F12 medium with 0.1% serum, 0.2% BSA, 30 μg/mL Gentamicin and 15 ng/mL Amphotericin) and incubated in starvation medium for further 24 h.
The quiescent cells were then pretreated for 30 min with the test compounds and induced to proliferate with 20 ng/mL platelet-derived growth factor (PDGF). Unstimulated cells were utilized for normalization and estimation of the basal level of proliferation. The final concentration of the solvent vehicle, dimethyl sulfoxide (DMSO), was the same (0.1%) in all wells. 48 h later, the SMC proliferation was quantified by resazurin dye conversion for 2 h as previously described (H. Joa et al., J. Nat. Prod. 74(6), 1513-6 (2011)).
For determination of endothelial cell proliferation, 0.5×10^4 HUVECtert immortalized human umbilical vein endothelial cells (H. B. Schiller et al., Mol. Biol. Cell. 20(3), 745-756 (2009)) were seeded in 96-well plates for 24 h in HUVEC Complete Medium (EBM™ growth medium supplemented with 10% fetal bovine serum, EBM™ SingleQuots (Lonza, Basel, Switzerland), 100 U/mL benzylpenicillin, 100 μg/mL streptomycin, and 1% amphotericin). Afterwards, the medium was exchanged with fresh HUVEC Complete Medium and cells were treated with the indicated compounds for 48 h. After the end of the incubation period, the medium was removed, the cells were washed once with 200 μL/well PBS, and treated with 150 μL HUVEC Complete Medium containing 10 μg/mL resazurin. 2 h later, the fluorescence was measured at a wavelength of 580 nm, with excitation wavelength 535 nm in a 96-well plate reader (Tecan GENios Pro; Tecan Group Ltd., Mannedorf, Switzerland).
In every case, the percentage of viable cells was subtracted from 1, in order to obtain a measure of efficiency of the test compounds towards each particular type of cells, and subsequently, the efficiency quotient towards SMCs and ECs was calculated and taken as the “activity ratio” and thus as a measure of selective efficiency of each test compound towards SMCs in relation to ECs. For example, the synthetic Leoligin with the bio ID 2418 prepared in Comparative Example 27 as compound 10-22 gave the following results:
Due to the usual fluctuations in determining surviving cells, which amount to approximately ±10%, and due to the relatively strong resulting fluctuations in calculating quotients—especially if the inhibitory effect of said novel compounds towards ECs is very poor—said threshold value of 1.50 for the activity ratio, as already mentioned above, was introduced.
In the following, a table listing every compound prepared in examples and comparative Examples for which an activity ratio (a.r.) of >1.0 was determined, is given.

SMCs [2] = assay: IC50 of Leoligin for SMCs (A. Knolz, Master's Thesis, University of Innsbruck, 2008); type: cell-based
SMCs [3] = details: cited from earlier work
ECs = details: cited from earlier work

SMILES | a.r. code (SMCs in relation to ECs) | other results
C/C=C(/C)C(=O)OC[C@H]1[C@@H](Cc2ccc(OC)c(OC)c2)CO[C@@H]1c1ccc(OC)c(OC)c1 [Leoligin, (Z)-((2S,3R,4R)-4-(3,4-dimethoxybenzyl)-2-(3,4-dimethoxyphenyl)tetrahydro-furan-3-yl)methyl 2-methylbut-2-enoate] |  | Efficiency towards SMCs (rat aortic SMCs; 1 minus fraction of surviving SMCs): 1-0.81 = 0.19; Percentage of surviving SMCs (rat aortic SMCs; rat aortic SMCs, 20 ng/mL PDGF, 48 h, resazurin): 0.81 (81%); Efficiency towards ECs ([1]; 1 minus fraction of surviving ECs): 1-0.51 = 0.49; Percentage of surviving ECs ([1]; HUVECtert, 48 h, resazurin): 0.51 (51%); inverse value of activity ratio (factor of selective inhibition of ECs relative to SMCs) (SMCs in relation to ECs; inverse of 0.39): approximately 2.5; inverse value of IC50 ratio (measure for selective inhibition of ECs compared to SMCs) (SMCs [2]; from cited IC50 values): 3.0; IC50 ratio (measure for selective inhibition of SMCs compared to ECs) (SMCs [2]; from cited IC50 values for ECs and SMCs): 0.33; IC50 (SMCs [3]): 54.5 µM; IC50 (ECs): 17.9 µM
C/C=C(/C)C(=O)OC[C@H]1[C@@H](Cc2ccc(OC)c(OC)c2)CO[C@@H]1c1ccc(F)cc1 [Comparative Example 26, (Z)-((2S,3R,4R)-4-(3,4-dimethoxybenzyl)-2-(4-fluorophenyl)tetrahydrofuran-3-yl)methyl 2-methylbut-2-enoate] | V (1.0 < a.r. < 1.50) | 
CCC(CC)C(=O)OC[C@H]1[C@@H](Cc2ccc(OC)c(OC)c2)CO[C@@H]1c1ccc(OC)c(OC)c1 [Comparative Example 44, ((2S,3R,4R)-4-(3,4-dimethoxybenzyl)-2-(3,4-dimethoxyphenyl)tetrahydrofuran-3-yl)methyl 2-ethylbutanoate] | V (1.0 < a.r. < 1.50) | 
C/C=C(/C)C(=O)OC[C@H]1[C@@H](Cc2ccc(C)cc2)CO[C@@H]1c1cc(OC)c(OC)c(OC)c1 [Comparative Example 34, (Z)-((2S,3R,4R)-4-(4-methylbenzyl)-2-(3,4,5-trimethoxyphenyl)tetrahydrofuran-3-yl)methyl 2-methylbut-2-enoate] | V (1.0 < a.r. < 1.50) | 
C/C=C(\C)C(=O)OC[C@H]1[C@@H](Cc2ccc(OC)c(OC)c2)CO[C@@H]1c1cc(OC)c(OC)c(OC)c1 [Example 34, (E)-((2S,3R,4R)-4-(3,4-dimethoxybenzyl)-2-(3,4,5-trimethoxyphenyl)tetra-hydrofuran-3-yl)methyl 2-methylbut-2-enoate] | AAA (a.r. ≧ 5.0) | 
COc1ccc(C[C@H]2CO[C@H](c3ccc(F)cc3)[C@H]2COC(=O)C2CCCC2)cc1OC [Example 29, ((2S,3R,4R)-4-(3,4-dimethoxybenzyl)-2-(4-fluorophenyl)tetrahydrofuran-3-yl)-methyl cyclopentanecarboxylate] | A (a.r. ≧ 1.50) | 
C/C=C(/C)C(=O)OC[C@H]1[C@@H](Cc2ccc(C(C)(F)F)cc2)CO[C@@H]1c1ccc(OC)c(OC)c1 [Example 14, (Z)-((2S,3R,4R)-4-(4-(1,1-difluoroethyl)benzyl)-2-(3,4-dimethoxyphenyl)tetra-hydrofuran-3-yl)methyl 2-methylbut-2-enoate] | A (a.r. ≧ 1.50) | 
C=CCOC[C@H]1[C@@H](Cc2ccc(OC)c(OC)c2)CO[C@@H]1c1ccc(OC)c(OC)c1 [Example 42, (2S,3R,4R)-3-((allyloxy)methyl)-4-(3,4-dimethoxybenzyl)-2-(3,4-dimethoxy-phenyl)tetrahydrofuran] | AAA (a.r. ≧ 5.0) | 
COc1ccc(C[C@H]2CO[C@H](c3ccc(OC)c(OC)c3)[C@H]2COC(=O)C=C(C)C)cc1OC [Example 25, ((2S,3R,4R)-4-(3,4-dimethoxybenzyl)-2-(3,4-dimethoxyphenyl)tetrahydrofuran-3-yl)methyl 3-methylbut-2-enoate] | AA (a.r. ≧ 2.0) | 
C/C=C(/C)C(=O)OC[C@H]1[C@@H](Cc2ccc(C(C)(C)C)cc2)CO[C@@H]1c1cc(OC)c(OC)c(OC)c1 [Example 20, (Z)-((2S,3R,4R)-4-(4-(tert-butyl)benzyl)-2-(3,4,5-trimethoxyphenyl)tetrahydro-furan-3-yl)methyl 2-methylbut-2-enoate] | AA (a.r. ≧ 2.0) | 
CCC(CC)C(=O)OC[C@H]1[C@@H](Cc2ccc(OC)c(OC)c2)CO[C@@H]1c1ccc(F)cc1 [Example 31, ((2S,3R,4R)-4-(3,4-dimethoxybenzyl)-2-(4-fluorophenyl)tetrahydrofuran-3-yl)-methyl 2-ethylbutanoate] | A (a.r. ≧ 1.50) | 
COc1ccc([C@H]2OC[C@H](Cc3cccc4ccccc34)[C@@H]2CO)cc1OC [Example 3, ((2S,3R,4R)-2-(3,4-dimethoxyphenyl)-4-(naphthalen-1-ylmethyl)tetrahydro-furan-3-yl)methanol] | AA (a.r. ≧ 2.0) | 
COc1ccc(C[C@H]2CO[C@H](c3ccc(OC)c(OC)c3)[C@H]2COC(=O)c2ccc3ccccc3c2)cc1OC [Comparative Example 38, ((2S,3R,4R)-4-(3,4-dimethoxybenzyl)-2-(3,4-dimethoxyphenyl)tetrahydrofuran-3-yl)methyl 2-naphthoate] | V (1.0 < a.r. < 1.50) | 
COc1ccc(C[C@H]2CO[C@H](c3ccc(OC)c(OC)c3)[C@H]2COC(=O)CC23CC4CC(CC(C4)C2)C3)cc1OC [Example 27, ((2S,3R,4R)-4-(3,4-dimethoxybenzyl)-2-(3,4-dimethoxyphenyl)tetrahydrofuran-3-yl) methyl 2-(adamantan-1-yl)acetate] | AA (a.r. ≧ 2.0) | 
COc1ccc(C[C@H]2CO[C@H](c3cc(OC)c(OC)c(OC)c3)[C@H]2COC(=O)C2CCCC2)cc1OC [Example 40, ((2S,3R,4R)-4-(3,4-dimethoxybenzyl)-2-(3,4,5-trimethoxyphenyl)tetrahydro-furan-3-yl)methyl cyclopentanecarboxylate] | AA (a.r. ≧ 2.0) | 
C/C=C/C(=O)OC[C@H]1[C@@H](Cc2ccc(OC)c(OC)c2)CO[C@@H]1c1ccc(OC)c(OC)c1 [Example 23, (E)-((2S,3R,4R)-4-(3,4-dimethoxybenzyl)-2-(3,4-dimethoxyphenyl)tetrahydro-furan-3-yl)methyl but-2-enoate] | AA (a.r. ≧ 2.0) | 
